From article PMC3517155 (ChemMedChem, 2009)

Legend:
[1] = target: T1, DAT (Rattus norvegicus, UniProt P23977); assay: DAT binding, inhibition of [3H]WIN 35,428 binding in rat striatum
[2] = target: T1, DAT; assay: DAT uptake, inhibition of [3H]DA uptake in rat striatum; assay type: biochemical; settings: for Selectivity ratio DAT uptake/DAT binding: ratio of Ki values
[3] = target: SERT (Rattus norvegicus, UniProt P31652); assay: SERT uptake, inhibition of [3H]5-HT uptake in rat cerebral cortex; assay type: biochemical; settings: for Selectivity ratio SERT uptake/DAT uptake: ratio of Ki values
Sequence of SERT (P31652 whole entry): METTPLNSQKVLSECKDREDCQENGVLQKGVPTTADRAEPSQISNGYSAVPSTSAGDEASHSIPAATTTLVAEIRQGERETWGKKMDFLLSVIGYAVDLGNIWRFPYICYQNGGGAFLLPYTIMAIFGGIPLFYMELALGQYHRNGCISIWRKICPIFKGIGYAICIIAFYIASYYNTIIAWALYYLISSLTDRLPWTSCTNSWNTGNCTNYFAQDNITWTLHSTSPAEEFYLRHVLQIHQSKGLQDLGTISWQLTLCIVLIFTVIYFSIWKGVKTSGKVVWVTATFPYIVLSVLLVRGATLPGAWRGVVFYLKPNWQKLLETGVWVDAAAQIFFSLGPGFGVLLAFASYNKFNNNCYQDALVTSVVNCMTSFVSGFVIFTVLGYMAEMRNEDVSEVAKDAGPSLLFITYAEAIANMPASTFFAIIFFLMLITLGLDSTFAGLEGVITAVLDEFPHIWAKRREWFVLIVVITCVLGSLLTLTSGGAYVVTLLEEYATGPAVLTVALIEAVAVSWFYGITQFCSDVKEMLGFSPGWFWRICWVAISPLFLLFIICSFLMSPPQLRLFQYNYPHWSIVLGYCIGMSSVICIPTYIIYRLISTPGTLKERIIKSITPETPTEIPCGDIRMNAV

[4] = test system: NET; assay: NET uptake, inhibition of [3H]NE uptake in rat hippocampus; assay type: biochemical; settings: ratio of Ki values
[5] = test system: rats trained to discriminate 10 mg/kg cocaine from saline; assay: Cocaine drug discrimination in rats; settings: at 10 and 30 mg/kg i.p.
[6] = test system: Swiss-Webster mice; assay: Locomotor activity in mice; settings: i.p., 1 mg/kg

T1 sequence (P23977 whole entry): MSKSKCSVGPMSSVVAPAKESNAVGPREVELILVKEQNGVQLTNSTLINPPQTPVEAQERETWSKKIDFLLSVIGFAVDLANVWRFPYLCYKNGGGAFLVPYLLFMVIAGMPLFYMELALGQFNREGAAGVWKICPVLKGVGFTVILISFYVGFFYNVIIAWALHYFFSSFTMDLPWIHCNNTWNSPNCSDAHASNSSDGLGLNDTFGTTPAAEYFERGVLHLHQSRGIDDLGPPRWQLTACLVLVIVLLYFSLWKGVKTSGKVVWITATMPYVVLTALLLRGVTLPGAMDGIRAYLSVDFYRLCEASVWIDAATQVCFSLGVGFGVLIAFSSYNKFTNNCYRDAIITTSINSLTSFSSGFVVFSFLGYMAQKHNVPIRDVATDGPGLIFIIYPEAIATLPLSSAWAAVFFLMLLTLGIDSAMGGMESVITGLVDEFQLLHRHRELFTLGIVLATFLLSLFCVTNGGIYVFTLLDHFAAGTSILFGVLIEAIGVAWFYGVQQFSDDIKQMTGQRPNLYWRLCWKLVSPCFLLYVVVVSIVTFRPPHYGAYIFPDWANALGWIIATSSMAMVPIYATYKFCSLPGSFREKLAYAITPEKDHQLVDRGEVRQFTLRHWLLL

Row | Structure (SMILES) | Ki [1] [nM] | Ki [2] [nM] | Selectivity ratio DAT uptake/DAT binding [2] | Ki [3] [nM] | Selectivity ratio SERT uptake/DAT uptake [3] | Selectivity ratio NET uptake/DAT uptake [4] | percentage of cocaine-lever responding [5] [%] | time of peak effect on distance traveled [6] [min]
1 | O[C@H](CN1CC[C@@H](CCOC(c2ccccc2)c2ccccc2)[C@H](O)C1)c1ccccc1 [9b′, (3S,4S)-4-(2-(Benzhydryloxy)ethyl)-1-((S)-2-hydroxy-2-phenylethyl)piperidin-3-ol] | 0.486 ± 0.065 | 1.06 ± 0.42 | 2.2 | 231 ± 49 | 220 | 110 |  | 
2 | COC(=O)[C@H]1[C@@H](OC(=O)c2ccccc2)C[C@@H]2CC[C@H]1N2C [cocaine] |  |  |  |  |  |  | ≥ 80 | 
3 | O[C@H](CN1CC[C@@H](CCOC(c2ccccc2)c2ccccc2)[C@H](O)C1)c1ccc(F)cc1 [9d′, (3S,4S)-4-(2-(Benzhydryloxy)ethyl)-1-((S)-2-(4-fluorophenyl)-2-hydroxyethyl)piperidin-3-ol] | 2.59 ± 0.66 | 2.97 ± 0.72 | 1.2 | 1790 | 600 | 7.0 |  | 
4 | O[C@@H](CN1CC[C@H](CCOC(c2ccccc2)c2ccccc2)[C@@H](O)C1)c1ccc(F)cc1 [Compound 9c, (3R,4R)-4-(2-(Benzhydryloxy)ethyl)-1-((R)-2-(4-fluorophenyl)-2-hydroxyethyl)piperidin-3-ol] | 2.17 ± 0.67 | 4.04 ± 1.22 | 2.0 | 1050 | 260 | 5.4 |  | 
5 | O[C@H](CN1CC[C@H](CCOC(c2ccccc2)c2ccccc2)[C@@H](O)C1)c1ccc(F)cc1 [Compound 9d, (3R,4R)-4-(2-(Benzhydryloxy)ethyl)-1-((S)-2-(4-fluorophenyl)-2-hydroxyethyl)piperidin-3-ol] | 2.65 ± 0.99 | 1.55 ± 0.27 | 0.59 | 259 ± 36 | 170 | 9.1 |  | 
6 | O[C@@H]1CN(C[C@H](O)c2ccc(F)cc2)CC[C@H]1CCOC(c1ccccc1)c1ccccc1 [9c′, (3S,4S)-4-(2-(benzhydryloxy)ethyl)-1-((R)-2-(4-fluorophenyl)-2-hydroxyethyl)piperidin-3-ol] |  | 2.44 ± 0.37 |  | 402 ± 67 | 160 | 10 |  | 
7 | O[C@@H](CN1CC[C@H](CCOC(c2ccccc2)c2ccccc2)[C@@H](O)C1)c1ccccc1 [Compound 9a, (3R,4R)-4-(2-(Benzhydryloxy)ethyl)-1-((R)-2-hydroxy-2-phenylethyl)-piperidin-3-ol] | 6.76 ± 1.75 | 6.23 ± 2.38 | 0.92 | 456 ± 102 | 73 | 1.2 |  | 20 to 30
8 | O[C@@H]1CN(C[C@H](O)c2ccccc2)CC[C@H]1CCOC(c1ccccc1)c1ccccc1 [9a′, (3S,4S)-4-(2-(Benzhydryloxy)ethyl)-1-((R)-2-hydroxy-2-phenylethyl)piperidin-3-ol] | 40.1 ± 19.2 | 18.4 ± 9.5 | 0.46 |  | 23 | 1.5 |  | 
9 | O[C@H](CN1CC[C@H](CCOC(c2ccccc2)c2ccccc2)[C@@H](O)C1)c1ccccc1 [Compound 9b, (3R,4R)-4-(2-(Benzhydryloxy)ethyl)-1-((S)-2-hydroxy-2-phenylethyl)piperidin-3-ol] | 2.29 ± 0.85 | 4.69 ± 2.06 | 2.0 | 155 ± 26 | 33 | 17 |  | 
